Where a name gives a salt, the structure may show the parent alone. Read-outs that look alike come from different tables or passages of the source.
Columns and labels:
E. coli (Ec) = assay: Broth microdilution minimum inhibitory concentration (MIC); type: cell-based; settings: for MIC: Escherichia coli, read-out: E. coli + bicarb MIC
Summary of the method: (§1)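 CLSI broth microdilution (M07-A9, slightly modified) in CAMHB, optionally with 6.25 or 25 mM sodium bicarbonate or 0–50% heat-inactivated human serum. Two-fold serial dilutions (8 concentrations, triplicate) were inoculated at 5×10^4 CFU/well from 0.5 McFarland cultures grown at 35±2 °C.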

E. faecalis (Ef) = assay: as above; type: cell-based; settings: for MIC: Enterococcus faecalis, read-out: Ef + bicarb MIC
Summary of the method: as §1

S. aureus (Sa) = assay: as above; type: cell-based; settings: for MIC: Staphylococcus aureus, read-out: Sa + bicarb MIC
Summary of the method: as §1

A. baumannii (Ab) = assay: as above; type: cell-based; settings: for MIC: Acinetobacter baumannii, read-out: Ab + bicarb MIC
Summary of the method: as §1

P. aeruginosa (Pa) = assay: as above; type: cell-based; settings: for MIC: Pseudomonas aeruginosa, read-out: Pa MIC + bicarb
Summary of the method: as §1

[1] = test system: E. coli S30 extract (bacterial protein synthesis); assay: E. coli S30 extract coupled transcription-translation luciferase assay (inhibition of bacterial protein synthesis); type: biochemical; settings: class by IC50 or % inhibition @ 1 μM, read-out: S30 IC50 (μM/% inhib.)
Summary of the method: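 Cell-free coupled transcription-translation in E. coli S30 circular-DNA extract, with pBESTluc plasmid as template and complete amino acid mix. Eight 2-fold compound dilutions were incubated with the extract 1 h at 37 °C, chilled, then luciferase luminescence was read. % inhibition was taken relative to no-inhibitor wells; no-DNA wells gave background.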

[2] = biological target: Rabbit Reticulocyte Lysate (eukaryotic protein synthesis); assay: Rabbit reticulocyte lysate luciferase assay (inhibition of eukaryotic protein synthesis); type: biochemical; settings: class by IC50 or % inhibition @ 1 μM, read-out: Rabbit reticulocyte IC50 (μM/% inhib.)
Summary of the method: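 Nuclease-treated rabbit reticulocyte lysate translating luciferase control RNA, with complete amino acids, was incubated at 30° C. for 90 minutes with 2-fold serial compound dilutions. Luminescence was measured after adding luciferase reagent. % inhibition was relative to water controls, with no-RNA wells as background.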

[3] = E. coli, growth medium with sodium bicarbonate
[4] = E. faecalis, growth medium with sodium bicarbonate
[5] = S. aureus, growth medium with sodium bicarbonate
[6] = A. baumannii, growth medium with sodium bicarbonate
[7] = P. aeruginosa, growth medium with sodium bicarbonate

Structure (SMILES) | MIC (E. coli (Ec); [3]) | MIC (E. faecalis (Ef); [4]) | MIC (S. aureus (Sa); [5]) | MIC (A. baumannii (Ab); [6]) | MIC (P. aeruginosa (Pa); [7]) | IC50 [1] | IC50 [2] | MIC (E. coli (Ec)) | MIC (E. faecalis (Ef)) | MIC (S. aureus (Sa)) | MIC (A. baumannii (Ab)) | MIC (P. aeruginosa (Pa)) | E. coli + bicarb MIC (E. coli (Ec); [3]) | Ef + bicarb MIC (E. faecalis (Ef); E. faecalis, growth medium with sodium bicarbonate, hydrochloride salt) | Sa + bicarb MIC (S. aureus (Sa); [5]) | Ab + bicarb MIC (A. baumannii (Ab); [6]) | Pa MIC + bicarb (P. aeruginosa (Pa); [7]) | IC50 ([1]; hydrochloride salt)
CC(CN1CCC[C@H](N)CC1)c1ccc(-n2ccc(NC(=O)N3CCN(C(=O)C(C)(C)N)CC3)nc2=O)cc1 (some centres unmarked) [Compound 290] | < 8 µg/mL | < 8 µg/mL | < 8 µg/mL | < 8 µg/mL | > 32 µg/mL | 0.5 to 1 µM | > 1 µM | – | – | – | – | – | – | – | – | – | – | –
CC(C)(N)C(N1CCN(C(=O)Nc2ccn(-c3ccc(CN4CCC(N)CC4)cc3)c(=O)n2)CC1)C(F)(F)F (centres unmarked) [Compound 291, hydrochloride salt] | – | – | – | – | – | > 1 µM | > 1 µM | 8 to 32 µg/mL | 8 to 32 µg/mL | < 8 µg/mL | 8 to 32 µg/mL | > 32 µg/mL | – | – | – | – | – | –
Cc1cc(NC(=O)N2CCN(C(=O)C(C)(C)N)CC2)nc(=O)n1-c1ccc(CN2CCC(N)CC2)cc1 [Compound 292, hydrochloride salt] | – | – | – | – | – | > 1 µM | > 1 µM | > 32 µg/mL | > 32 µg/mL | > 32 µg/mL | > 32 µg/mL | > 32 µg/mL | – | – | – | – | – | –
NC1CCN(Cc2ccc(-n3ccc(NC(=O)N4C[C@H]5C[C@@H](N)C[C@H]5C4)nc3=O)cc2)CC1 [Compound 295, trifluoroacetate salt] | – | – | – | – | – | > 1 µM | > 1 µM | > 32 µg/mL | > 32 µg/mL | > 32 µg/mL | > 32 µg/mL | > 32 µg/mL | – | – | – | – | – | –
CC(N)C1CCN(Cc2ccc(-n3ccc(NC(=O)N4CCN(C(=O)C(C)(C)N)CC4)nc3=O)cc2)CC1 (centres unmarked) [Compound 299, hydrochloride salt] | – | – | – | – | – | – | > 1 µM | – | – | – | – | – | +++ (An MIC value (μg/mL) that is less than 8 μg/mL) | ++ (An MIC value (μg/mL) that is 8 μg/mL or greater and less than 32 μg/mL) | +++ (An MIC value (μg/mL) that is less than 8 μg/mL) | + (An MIC value (μg/mL) that is 32 μg/mL or greater) | + (An MIC value (μg/mL) that is 32 μg/mL or greater) | 0.5 to 1 µM
CNC1CCC(N(Cc2ccc(-n3ccc(NC(=O)N4CCN(C(=O)C(C)(C)N)CC4)nc3=O)cc2)CC2CC2)CC1 (centres unmarked) [Compound 301, hydrochloride salt] | – | – | – | – | – | 0.5 to 1 µM | > 1 µM | < 8 µg/mL | < 8 µg/mL | < 8 µg/mL | 8 to 32 µg/mL | > 32 µg/mL | – | – | – | – | – | –
NC1CCCN(CCc2ccc(-n3ccc(NC(=O)N4CCN(C(=O)C5CCCN5)CC4)nc3=O)cc2)CC1 (centres unmarked) [Compound 310, hydrochloride salt] | – | – | – | – | – | 0.5 to 1 µM | > 1 µM | < 8 µg/mL | > 32 µg/mL | 8 to 32 µg/mL | > 32 µg/mL | > 32 µg/mL | – | – | – | – | – | –
CCN(Cc1ccc(-n2ccc(NC(=O)N3CCN(C(=O)CNC)CC3)nc2=O)cc1)C1CCC(N)CC1 (centres unmarked) [Compound 313, hydrochloride salt] | – | – | – | – | – | 0.5 to 1 µM | > 1 µM | < 8 µg/mL | > 32 µg/mL | < 8 µg/mL | > 32 µg/mL | > 32 µg/mL | – | – | – | – | – | –
CCN(Cc1ccc(-n2ccc(NC(=O)N3CCN(C(=O)C4(N)CCC4)CC3)nc2=O)cc1)C1CCC(N)CC1 (centres unmarked) [Compound 315, hydrochloride salt] | – | – | – | – | – | > 1 µM | > 1 µM | 8 to 32 µg/mL | > 32 µg/mL | 8 to 32 µg/mL | > 32 µg/mL | > 32 µg/mL | – | – | – | – | – | –
COc1cc(-n2ccc(NC(=O)N3CCN(C(=O)C(C)(C)N)CC3)nc2=O)ccc1CN(CC1CC1)C1CCC(N)CC1 (centres unmarked) [Compound 317, hydrochloride salt] | – | – | – | – | – | < 0.5 µM | > 1 µM | < 8 µg/mL | 8 to 32 µg/mL | < 8 µg/mL | > 32 µg/mL | > 32 µg/mL | – | – | – | – | – | –
CC(C)(N)C(=O)N1CCN(C(=O)Nc2ccn(-c3ccc(CNC4C[C@@H](N)C[C@@H](N)C4)cc3)c(=O)n2)CC1 (some centres unmarked) [Compound 321, hydrochloride salt] | – | – | – | – | – | < 0.5 µM | > 1 µM | 8 to 32 µg/mL | > 32 µg/mL | > 32 µg/mL | > 32 µg/mL | > 32 µg/mL | – | – | – | – | – | –
CC(C)(N)C(=O)N1CCN(C(=O)Nc2ccn(-c3ccc(CN[C@H]4CC[C@H](N)CC4)c(F)c3)c(=O)n2)CC1 [Compound 330, 4-(2-Amino-2-methylpropanoyl)-N-(1-(4-(((trans-4-aminocyclohexyl)amino)methyl)-3-fluorophenyl)-2-oxo-1,2-dihydropyrimidin-4-yl)piperazine-1-carboxamide hydrochloride salt] | – | – | – | – | – | < 0.5 µM | > 1 µM | < 8 µg/mL | > 32 µg/mL | 8 to 32 µg/mL | > 32 µg/mL | > 32 µg/mL | – | – | – | – | – | –
CC(C)(N)C(=O)N1CCN(C(=O)Nc2ccn(-c3ccc(CN(CC4CC4)C4CCC(N)CC4)c(OC(F)(F)F)c3)c(=O)n2)CC1 (centres unmarked) [Compound 331, hydrochloride salt] | – | – | – | – | – | < 0.5 µM | > 1 µM | < 8 µg/mL | 8 to 32 µg/mL | 8 to 32 µg/mL | > 32 µg/mL | > 32 µg/mL | – | – | – | – | – | –
CC(C)(N)C(=O)N1CCN(C(=O)Nc2ccn(-c3ccc(CN[C@H]4CC[C@H](N)CC4)c(OC(F)(F)F)c3)c(=O)n2)CC1 [Compound 332, hydrochloride salt] | – | – | – | – | – | < 0.5 µM | > 1 µM | < 8 µg/mL | 8 to 32 µg/mL | 8 to 32 µg/mL | > 32 µg/mL | > 32 µg/mL | – | – | – | – | – | –
CC(C)(N)C(=O)N1CCN(C(=O)Nc2ccn(-c3ccc(CN4CCCC(N)CC4)c(F)c3)c(=O)n2)CC1 (centres unmarked) [Compound 334, hydrochloride salt] | – | – | – | – | – | < 0.5 µM | > 1 µM | < 8 µg/mL | > 32 µg/mL | 8 to 32 µg/mL | > 32 µg/mL | > 32 µg/mL | – | – | – | – | – | –
CC1C[C@@H](NCc2ccc(-n3ccc(NC(=O)N4CCN(C(=O)C(C)(C)N)CC4)nc3=O)cc2)CC[C@@H]1N (some centres unmarked) [Compound 335, hydrochloride salt] | – | – | – | – | – | < 0.5 µM | > 1 µM | < 8 µg/mL | > 32 µg/mL | < 8 µg/mL | > 32 µg/mL | > 32 µg/mL | – | – | – | – | – | –
CC1C[C@@H](N(C)Cc2ccc(-n3ccc(NC(=O)N4CCN(C(=O)C(C)(C)N)CC4)nc3=O)cc2)CC[C@@H]1N (some centres unmarked) [Compound 337] | < 8 µg/mL | 8 to 32 µg/mL | < 8 µg/mL | > 32 µg/mL | > 32 µg/mL | < 0.5 µM | > 1 µM | – | – | – | – | – | – | – | – | – | – | –
CCN(Cc1ccc(-n2ccc(NC(=O)N3CCN(C(=O)C(C)(C)N)CC3)nc2=O)cc1)[C@H]1CC[C@H](N)C(C)C1 (some centres unmarked) [Compound 338, hydrochloride salt] | – | – | – | – | – | < 0.5 µM | > 1 µM | < 8 µg/mL | 8 to 32 µg/mL | < 8 µg/mL | > 32 µg/mL | > 32 µg/mL | – | – | – | – | – | –
CO[C@H]1C[C@@H](NCc2ccc(-n3ccc(NC(=O)N4CCN(C(=O)C(C)(C)N)CC4)nc3=O)cc2)CC[C@@H]1N [Compound 339, hydrochloride salt] | – | – | – | – | – | < 0.5 µM | > 1 µM | < 8 µg/mL | > 32 µg/mL | 8 to 32 µg/mL | > 32 µg/mL | > 32 µg/mL | – | – | – | – | – | –
CO[C@H]1C[C@@H](N(C)Cc2ccc(-n3ccc(NC(=O)N4CCN(C(=O)C(C)(C)N)CC4)nc3=O)cc2)CC[C@@H]1N [Compound 340, hydrochloride salt] | – | – | – | – | – | 0.5 to 1 µM | > 1 µM | < 8 µg/mL | > 32 µg/mL | 8 to 32 µg/mL | > 32 µg/mL | > 32 µg/mL | – | – | – | – | – | –
